Measurements as given in PMC12881674, “Activation of TRPV3 channels in bladder cancer cells stimulates ATP release” (Molecular Pharmacology, 2025).

Assays:
Format in all cases: cell-based
mouse TRPV3 = molecular target: T1, mouse TRPV3 (Mus musculus, UniProt Q8K424); assay: fluo-4 fluorometric Ca2+ assay, concentration-response, HEK cells expressing mouse TRPV3; conditions: HEK cells expressing mouse TRPV3, fluo-4, room temperature, mean ± SD back-transformed from log space, n=5; read-out: EC50 for mouse TRPV3 activation
T1 construct: expressed in transfected cells; host or cells: HEK293
T1 sequence (Q8K424 1-791): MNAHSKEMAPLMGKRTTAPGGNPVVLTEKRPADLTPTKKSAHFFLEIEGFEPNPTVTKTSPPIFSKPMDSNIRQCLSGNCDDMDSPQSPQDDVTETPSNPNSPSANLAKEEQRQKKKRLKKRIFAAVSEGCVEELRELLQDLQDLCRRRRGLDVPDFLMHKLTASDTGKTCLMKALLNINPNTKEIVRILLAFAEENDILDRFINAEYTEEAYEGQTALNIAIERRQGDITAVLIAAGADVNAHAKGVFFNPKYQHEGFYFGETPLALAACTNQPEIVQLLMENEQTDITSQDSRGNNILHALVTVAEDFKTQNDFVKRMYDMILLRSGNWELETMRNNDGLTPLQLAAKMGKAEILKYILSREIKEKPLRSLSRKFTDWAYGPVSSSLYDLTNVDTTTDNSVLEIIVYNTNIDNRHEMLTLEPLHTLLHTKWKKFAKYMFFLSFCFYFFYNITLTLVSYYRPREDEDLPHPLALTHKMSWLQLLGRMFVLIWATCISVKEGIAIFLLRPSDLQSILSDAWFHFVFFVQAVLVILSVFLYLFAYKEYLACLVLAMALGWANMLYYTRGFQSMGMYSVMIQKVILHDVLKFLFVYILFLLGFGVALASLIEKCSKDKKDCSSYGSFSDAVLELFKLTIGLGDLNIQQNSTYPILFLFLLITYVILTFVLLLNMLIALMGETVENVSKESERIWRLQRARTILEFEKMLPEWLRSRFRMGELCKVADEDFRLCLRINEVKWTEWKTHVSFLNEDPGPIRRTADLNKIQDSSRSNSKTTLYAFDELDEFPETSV
Source text: (§1) KU-19-19 (DSMZ no. ACC 395), CAL-29 (DSMZ no. ACC 515), 647-V (DSMZ no. ACC 414), RT-4 (DSMZ no. ACC 412), and RT-112 (DSMZ no. ACC 418) bladder cancer cell lines were obtained from the Leibniz Institute DSMZ (German Collection of Microorganisms and Cell Cultures). Human TRPV3 (NM_145068, purchased from OriGene) and mouse TRPV3 (NM_001371006), rat TRPV1, mouse TRPV2, mouse TRPV4, human TRPM2, human TRPM8, and human TRPA1 were stably transfected in HEK293 cells as described before.[27] […]
(§2) All fluorometric Ca^2+ assays were performed in HBS buffer at room temperature. […] For the primary compound screening and the generation of concentration-response analyses, a robotic liquid handling station (Freedom Evo 150; Tecan) with a built-in custom-made fluorescence plate imager was used. […] Fluorescence was excited using a 470-nm light-emitting diode, and emitted light was imaged through a 515-nm–long pass filter with a cooled Zyla 5.5 camera (Andor). Fluorescence was recorded and processed under the control of the μ-Manager 2.0 gamma software (https://micro-manager.org.[28]). After recording baseline fluorescence, compounds were dispensed into the wells via the liquid handling device. […] For further analysis, fluorescence signals were calculated for each well, corrected for background intensities and normalized to the initial signals. […]

human TRPM8 = molecular target: T2, human TRPM8 (Homo sapiens, UniProt Q7Z2W7); assay: fluo-4 Ca2+ assay selectivity, HEK cells expressing human TRPM8; conditions: concentrations up to 50 μM
T2 construct: expressed in transfected cells; host or cells: HEK293
T2 sequence (Q7Z2W7 whole entry): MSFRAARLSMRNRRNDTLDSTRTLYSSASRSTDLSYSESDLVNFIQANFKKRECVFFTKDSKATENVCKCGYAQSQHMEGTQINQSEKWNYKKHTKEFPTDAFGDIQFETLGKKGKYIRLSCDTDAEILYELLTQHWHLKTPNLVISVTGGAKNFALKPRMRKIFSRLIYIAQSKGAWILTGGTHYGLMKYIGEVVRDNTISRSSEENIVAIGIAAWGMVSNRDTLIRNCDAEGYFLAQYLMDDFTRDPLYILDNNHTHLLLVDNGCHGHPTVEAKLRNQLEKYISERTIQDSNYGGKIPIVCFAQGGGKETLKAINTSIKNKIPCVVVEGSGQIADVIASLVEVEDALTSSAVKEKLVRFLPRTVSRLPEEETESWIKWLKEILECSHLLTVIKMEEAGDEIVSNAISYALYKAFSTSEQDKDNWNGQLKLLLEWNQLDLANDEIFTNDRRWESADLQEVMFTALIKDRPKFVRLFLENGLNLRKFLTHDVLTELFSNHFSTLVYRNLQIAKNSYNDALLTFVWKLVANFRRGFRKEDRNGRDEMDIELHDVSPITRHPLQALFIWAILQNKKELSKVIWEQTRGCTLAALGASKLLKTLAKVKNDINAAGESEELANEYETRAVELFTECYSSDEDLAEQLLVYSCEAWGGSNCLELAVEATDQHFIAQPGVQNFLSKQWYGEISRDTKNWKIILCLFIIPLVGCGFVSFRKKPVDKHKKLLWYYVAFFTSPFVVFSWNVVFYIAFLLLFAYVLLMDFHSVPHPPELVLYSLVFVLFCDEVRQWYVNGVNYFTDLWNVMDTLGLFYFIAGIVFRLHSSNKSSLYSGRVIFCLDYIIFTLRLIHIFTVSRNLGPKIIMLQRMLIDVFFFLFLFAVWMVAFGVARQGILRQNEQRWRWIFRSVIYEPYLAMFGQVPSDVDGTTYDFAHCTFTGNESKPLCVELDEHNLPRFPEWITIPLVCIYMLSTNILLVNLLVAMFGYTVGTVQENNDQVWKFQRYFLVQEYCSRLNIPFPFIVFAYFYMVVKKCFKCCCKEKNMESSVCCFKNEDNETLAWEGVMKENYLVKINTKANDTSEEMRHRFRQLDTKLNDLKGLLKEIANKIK
Source text: as §1, §2

human TRPA1 = molecular target: T3, human TRPA1 (Homo sapiens, UniProt O75762); assay: fluo-4 Ca2+ assay selectivity, HEK cells expressing human TRPA1
T3 construct: expressed in transfected cells; host or cells: HEK293
T3 sequence (O75762 whole entry): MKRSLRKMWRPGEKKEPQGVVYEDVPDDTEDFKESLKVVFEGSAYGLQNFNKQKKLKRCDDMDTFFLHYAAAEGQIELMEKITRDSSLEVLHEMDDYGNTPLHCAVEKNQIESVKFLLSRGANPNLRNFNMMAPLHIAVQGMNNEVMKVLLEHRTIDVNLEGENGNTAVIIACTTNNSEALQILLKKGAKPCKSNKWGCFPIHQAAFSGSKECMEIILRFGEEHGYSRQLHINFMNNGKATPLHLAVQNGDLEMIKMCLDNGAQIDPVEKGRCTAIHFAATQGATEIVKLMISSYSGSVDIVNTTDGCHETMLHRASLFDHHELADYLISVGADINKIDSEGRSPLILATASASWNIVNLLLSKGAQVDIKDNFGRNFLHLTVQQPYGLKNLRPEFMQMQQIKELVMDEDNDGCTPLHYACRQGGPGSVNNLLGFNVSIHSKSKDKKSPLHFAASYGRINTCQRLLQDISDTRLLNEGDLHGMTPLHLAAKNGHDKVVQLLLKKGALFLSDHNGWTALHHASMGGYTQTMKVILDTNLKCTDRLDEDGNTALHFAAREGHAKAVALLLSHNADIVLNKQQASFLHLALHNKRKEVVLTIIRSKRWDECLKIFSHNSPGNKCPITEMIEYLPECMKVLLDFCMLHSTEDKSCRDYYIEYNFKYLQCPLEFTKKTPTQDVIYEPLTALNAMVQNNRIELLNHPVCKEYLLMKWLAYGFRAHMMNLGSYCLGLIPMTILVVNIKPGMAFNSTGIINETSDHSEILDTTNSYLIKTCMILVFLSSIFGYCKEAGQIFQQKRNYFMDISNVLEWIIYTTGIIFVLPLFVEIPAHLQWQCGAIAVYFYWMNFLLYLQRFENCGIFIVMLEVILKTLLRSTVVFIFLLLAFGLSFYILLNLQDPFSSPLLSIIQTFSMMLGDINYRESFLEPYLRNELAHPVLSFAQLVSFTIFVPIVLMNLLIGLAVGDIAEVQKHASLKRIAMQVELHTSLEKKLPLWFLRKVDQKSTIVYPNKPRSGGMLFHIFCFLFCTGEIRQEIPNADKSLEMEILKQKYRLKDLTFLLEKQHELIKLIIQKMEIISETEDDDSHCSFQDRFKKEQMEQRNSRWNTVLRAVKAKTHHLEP
Source text: as §1, §2

In the case of `COC(=O)C12CN(Cc3ccccc3)CC1(C(=O)OC)CN(Cc1ccccc1)C2` (stereo not drawn) [AV3-1], the EC50 (mouse TRPV3) is reported as 2000 ± 1400 nM, the “effect on TRPM8” value (human TRPM8) is reported as “no effect” and the “effect on TRPA1” value (human TRPA1) is reported as “activates”.
